In ChEMBL document CHEMBL1765021, “Assessing high affinity binding to HLA-DQ2.5 by a novel peptide library based approach” (Bioorg Med Chem, 2011):
Calls of active or inactive are those of the source. The rule behind the calls is not given here. Peptide text beside a SMILES is read from it.

Experiments:
Homo sapiens [1] = species: Homo sapiens; assay: Ratio of IC50 of peptide P198 for human MHC class II HLA-DQ2.5 to IC50 of peptide for human MHC class II HLA-DQ2.5
Homo sapiens [2] = species: Homo sapiens; assay: Binding affinity to MHC class II HLA-DQ2.5 in Epstein-Barr virus-transformed human B lymphocyte

Structure (SMILES) | Ratio IC50 (Homo sapiens [1]) | Activity (Homo sapiens [2])
CC(C)C[C@H](NC(=O)[C@H](CCC(=O)O)NC(=O)[C@H](CCC(=O)O)NC(=O)[C@H](CCC(=O)O)NC(=O)[C@H](CCCCN)NC(=O)[C@H](CCC(=O)O)NC(=O)[C@H](C)NC(=O)[C@H](C)NC(=O)[C@@H](N)Cc1ccccc1)C(=O)N[C@@H](CCCNC(=N)N)C(=O)O (H-FAAEKEEELR-OH) | 0.93 | Active
CC(C)[C@H](NC(=O)[C@H](CCCCN)NC(=O)[C@H](CCC(=O)O)NC(=O)[C@H](C)NC(=O)[C@H](C)NC(=O)[C@@H](N)Cc1ccccc1)C(=O)N[C@@H](CCC(=O)O)C(=O)N[C@@H](CCC(=O)O)C(=O)N[C@@H](Cc1ccccc1)C(=O)N[C@@H](CCCNC(=N)N)C(=O)O (H-FAAEKVEEFR-OH) | – | Active
CC(C)C[C@H](NC(=O)[C@H](C)NC(=O)[C@H](C)NC(=O)[C@@H](N)Cc1ccccc1)C(=O)N[C@@H](CCCCN)C(=O)N[C@@H](CCC(=O)O)C(=O)N[C@@H](CCC(=O)O)C(=O)N[C@@H](CCC(=O)O)C(=O)N[C@@H](Cc1ccc(O)cc1)C(=O)N[C@@H](CCCNC(=N)N)C(=O)O (H-FAALKEEEYR-OH) | – | Active
